Experimental data as given in PubChem BioAssay (NCI).
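Step 1: Grow cells in 96-well plates. Step 2: Expose to compound for 48 hours at 5 concentrations. Step 3: Interpolate endpoints linearly; if unreached, use highest concentration. GI50 marks 50% less growth. TGI: total growth inhibition.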

How the values were obtained:
Experiment in all cases: NCI tumour cell line growth inhibition, 48 h
HS 578T breast = test system: HS 578T breast
T-47D breast = test system: T-47D breast
DU-145 prostate = test system: DU-145 prostate
PC-3 prostate = test system: PC-3 prostate
MDA-MB-435 = test system: MDA-MB-435
HOP-18 NSCLC = test system: HOP-18 NSCLC
SNB-78 CNS = test system: SNB-78 CNS
RXF-631 renal = test system: RXF-631 renal
DMS 273 small cell lung = test system: DMS 273 small cell lung
786-0 renal = test system: 786-0 renal
LXFL 529 NSCLC = test system: LXFL 529 NSCLC
KM20L2 colon = test system: KM20L2 colon
P388/ADR leukemia = test system: P388/ADR leukemia
SN12K1 renal = test system: SN12K1 renal
P388 leukemia = test system: P388 leukemia

Row | SMILES | TGI (HS 578T breast) [µM] | TGI (T-47D breast) [µM] | TGI (DU-145 prostate) [µM] | TGI (PC-3 prostate) [µM] | TGI (MDA-MB-435) [µM] | TGI (HOP-18 NSCLC) [µM] | TGI (SNB-78 CNS) [µM] | TGI (DMS 273 small cell lung) [µM] | TGI (786-0 renal) [µM] | TGI (LXFL 529 NSCLC) [µM] | TGI (KM20L2 colon) [µM] | other results
1 | CCC(=O)NC(Nc1cccc(F)c1)(C(F)(F)F)C(F)(F)F | > 100 | > 100 | > 100 | > 100 | > 100 | – | – | – | – | – | – | –
2 | c1ccc(N=c2nc(N3CCOCC3)ss2)cc1 | – | – | – | – | – | > 100 | 51.3 | 31.4 | 30.1 | 24.6 | 31.4 | TGI (RXF-631 renal): 31.7 µM
3 | Fc1ccc(-c2nn3c(-c4cc(C(F)(F)F)cc(C(F)(F)F)c4)nnc3s2)cc1 | > 50 | – | > 50 | > 50 | > 50 | – | – | – | – | – | – | GI50 (HS 578T breast): 1.76 µM; GI50 (DU-145 prostate): > 50 µM; GI50 (PC-3 prostate): > 50 µM; GI50 (MDA-MB-435): > 50 µM
4 | CC(=O)O[C@H]1C=CC(=O)C(C)CC1C (stereo not given in full) | – | – | – | – | – | – | > 100 | > 100 | – | > 100 | > 100 | TGI (RXF-631 renal): > 100 µM
5 | CCCC(N)C(=O)c1ccccc1 (stereo not given) | – | – | – | – | – | > 100 | > 100 | > 100 | > 100 | > 100 | > 100 | –
6 | COC1=CC(=O)c2c(cc(COP(=O)(OCC3OC(n4cc(F)c(=O)[nH]c4=O)CC3O)N(C)CCCCCl)n2C)C1=O (stereo not given) | 2.64 | 36.2 | 33.3 | 22.7 | 5 | – | – | – | > 69.2 | – | – | –
7 | Cc1cc(C)nc(SCC(=O)OC2CC(C)CCC2C(C)C)n1 (stereo not given) | > 100 | 54.2 | > 100 | 69.5 | 58.3 | – | – | – | 42.6 | – | – | –
8 | CN1C[C@H]2[C@@H](C1=O)[C@H](c1ccccc1)ON2C | > 100 | > 100 | > 100 | > 100 | > 100 | – | – | – | – | – | – | –
9 | O=C(Nc1c(C(=O)NC2CCCCC2)[nH]c(=O)[nH]c1=O)c1ccc(Cl)cc1 | – | – | – | – | – | > 100 | – | – | – | > 100 | – | –
10 | CC(=O)OCC1=C(C(=O)O)C(c2ccc3c(c2)OCO3)c2cc3c(cc2O1)OCO3 (stereo not given) | – | – | – | – | – | > 100 | > 100 | > 100 | – | – | > 100 | TGI (RXF-631 renal): > 100 µM
11 | Cc1cc(C)c2c(c1)C1=NCCN1C2(O)c1ccc(Cl)cc1 (stereo not given) | 32 | 41.7 | 40.5 | 36.3 | 32.5 | – | – | – | 29.6 | – | – | –
12 | NC1(C(=O)O)CCc2ccc(N(CCCl)CCCl)cc2C1 (stereo not given) | – | – | – | – | – | > 100 | – | > 100 | – | – | > 100 | TGI (P388/ADR leukemia): 35.1 µM; TGI (SN12K1 renal): > 100 µM; TGI (P388 leukemia): 7.27 µM
13 | N=C(N)SCc1cc(Cl)cc(Cl)c1O | 72 | 51.8 | 36.2 | 43.9 | 38 | – | – | – | 32.2 | – | – | –
14 | CCCCCCCNC(P(=O)(O)O)P(=O)(O)O | 97.5 | > 100 | > 100 | > 100 | > 100 | – | – | – | > 100 | – | – | –
15 | Cc1ccc(C2N=C(N)NC3=C2CCOc2c3ccc3ccccc23)cc1 (stereo not given) | 67.7 | > 65.3 | > 85.4 | > 75 | > 23.4 | – | – | – | > 71.7 | – | – | –
16 | O=C(Nc1ccc(Sc2ccc(N=Nc3c(O)c(S(=O)(=O)O)cc4cc(S(=O)(=O)O)ccc34)cc2)cc1)c1ccc(N=Nc2c(O)ccc3c(S(=O)(=O)O)cc(S(=O)(=O)O)cc23)cc1 | – | – | – | – | – | > 100 | > 100 | > 100 | > 100 | > 100 | > 100 | TGI (RXF-631 renal): > 100 µM
17 | N#CC(Nc1cccc(C(F)(F)F)c1)c1ccccc1C(F)(F)F (stereo not given) | – | – | – | – | – | 26.4 | 43 | 21.1 | – | 15.7 | 28.4 | –
18 | Clc1ccc(CNc2nc(Cl)c3[nH]cnc3n2)cc1Cl | 50.8 | 51.3 | > 100 | > 100 | > 100 | – | – | – | > 100 | – | – | –
19 | O=C(O)C1CCC(=O)N1S(=O)(=O)c1ccccc1 (stereo not given) | – | – | – | – | – | > 100 | > 100 | > 100 | – | – | > 100 | TGI (P388/ADR leukemia): > 100 µM; TGI (SN12K1 renal): > 100 µM; TGI (P388 leukemia): > 100 µM
